Data from patent US7893092B2, “Anthranilamide derivatives as insecticides” (Syngenta Crop Protection, Inc., priority 2004, dated 2011).

System: Plutella xylostella
Experiment: Activity against Plutella xylostella (Example B7)
Type: in vivo
Settings: 72 h, young cabbage plants sprayed, 400 ppm active ingredient, 3rd instar caterpillars, 3 days, read-out: percentage reduction in the population and in the feeding damage (% activity)
Protocol: (§1) Young cabbage plants are sprayed with an aqueous emulsion spray mixture comprising 400 ppm of active ingredient and, after the spray coating has dried on, populated with 10 caterpillars (3rd instar) of Plutella xylostella and introduced into a plastic container. 3 days later, the percentage reduction in the population and in the feeding damage (% activity) are determined by comparing the number of dead caterpillars and the feeding damage between the treated and untreated plants.

SMILES | inhibition at 400 ppm
Cc1cc(Cl)cc(C(=O)NCC(C)S(C)(=N)=O)c1NC(=O)c1cc(C(F)(F)F)nn1-c1ncccc1Cl (centres unmarked) [T36.1.1] | > 80%
CCC(CS(C)(=N)=O)NC(=O)c1cc(Cl)cc(C)c1NC(=O)c1cc(C(F)(F)F)nn1-c1ncccc1Cl (centres unmarked) [T38.1.1] | > 80%
CCC(CS(C)(=O)=NC(=O)C(F)(F)F)NC(=O)c1cc(Cl)cc(C)c1NC(=O)c1cc(C(F)(F)F)nn1-c1ncccc1Cl (centres unmarked) [T39.1.1] | > 80%
Cc1cc(Cl)cc(C(=O)NCCCCS(C)(=N)=O)c1NC(=O)c1cc(C(F)(F)F)nn1-c1ncccc1Cl (centres unmarked) [T40.1.1] | > 80%
Cc1cc(Cl)cc(C(=O)NCCCCS(C)(=O)=NC(=O)C(F)(F)F)c1NC(=O)c1cc(C(F)(F)F)nn1-c1ncccc1Cl (centres unmarked) [T41.1.1] | > 80%
Cc1cc(Cl)cc(C(=O)NCC(C)(C)CS(C)(=N)=O)c1NC(=O)c1cc(C(F)(F)F)nn1-c1ncccc1Cl (centres unmarked) [T42.1.1] | > 80%
Cc1cc(Cl)cc(C(=O)NCC(C)(C)CS(C)(=O)=NC(=O)C(F)(F)F)c1NC(=O)c1cc(C(F)(F)F)nn1-c1ncccc1Cl (centres unmarked) [T43.1.1] | > 80%
Cc1cc(Cl)cc(C(=O)NCCOCCS(C)(=N)=O)c1NC(=O)c1cc(C(F)(F)F)nn1-c1ncccc1Cl (centres unmarked) [T44.1.1] | > 80%
Cc1cc(Cl)cc(C(=O)NCCOCCS(C)(=O)=NC(=O)C(F)(F)F)c1NC(=O)c1cc(C(F)(F)F)nn1-c1ncccc1Cl (centres unmarked) [T45.1.1] | > 80%
Cc1cc(Cl)cc(C(=O)NCCCCCCS(C)(=O)=NC(=O)C(F)(F)F)c1NC(=O)c1cc(C(F)(F)F)nn1-c1ncccc1Cl (centres unmarked) [T47.1.1] | > 80%

System: Spodoptera littoralis
Experiment: Activity against Spodoptera littoralis (Example B8)
Type: in vivo
Settings: 72 h, young soya plants sprayed, 400 ppm active ingredient, 1st instar caterpillars, 3 days, read-out: percentage reduction in the population and in the feeding damage (% activity)
Protocol: as §1, with “soya” for “cabbage”, “(1st” for “(3rd”, “Spodoptera littoralis” for “Plutella xylostella”

SMILES | inhibition at 400 ppm
Cc1cc(Cl)cc(C(=O)NCC(C)S(C)(=N)=O)c1NC(=O)c1cc(C(F)(F)F)nn1-c1ncccc1Cl (centres unmarked) [T36.1.1] | > 80%
Cc1cc(Cl)cc(C(=O)NCCCCS(C)(=N)=O)c1NC(=O)c1cc(C(F)(F)F)nn1-c1ncccc1Cl (centres unmarked) [T40.1.1] | > 80%
Cc1cc(Cl)cc(C(=O)NCCCCS(C)(=O)=NC(=O)C(F)(F)F)c1NC(=O)c1cc(C(F)(F)F)nn1-c1ncccc1Cl (centres unmarked) [T41.1.1] | > 80%
Cc1cc(Cl)cc(C(=O)NCC(C)(C)CS(C)(=N)=O)c1NC(=O)c1cc(C(F)(F)F)nn1-c1ncccc1Cl (centres unmarked) [T42.1.1] | > 80%
Cc1cc(Cl)cc(C(=O)NCC(C)(C)CS(C)(=O)=NC(=O)C(F)(F)F)c1NC(=O)c1cc(C(F)(F)F)nn1-c1ncccc1Cl (centres unmarked) [T43.1.1] | > 80%
Cc1cc(Cl)cc(C(=O)NCCOCCS(C)(=N)=O)c1NC(=O)c1cc(C(F)(F)F)nn1-c1ncccc1Cl (centres unmarked) [T44.1.1] | > 80%
Cc1cc(Cl)cc(C(=O)NCCCCCCS(C)(=O)=NC(=O)C(F)(F)F)c1NC(=O)c1cc(C(F)(F)F)nn1-c1ncccc1Cl (centres unmarked) [T47.1.1] | > 80%

System: Spodoptera littoralis
Experiment: Systemic insecticide test for Spodoptera littoralis (cotton leafworm) (Example B9)
Type: in vivo
Settings: in Zea mays, 96 h, read-out: percentage of dead (activity)
Protocol: Four day old maize seedlings (Zea mays, variety Stoneville) are placed individual in vials containing 24 ml water into which the chemical is diluted at 12.5 ppm. Seedlings are allowed to grow for six days. Subsequently leaves are cut and placed in a Petri dish (5 cm diameter), inoculated with twelve to fifteen 1st instar S. littoralis larvae and incubated for four days in a growth chamber (25° C., 50% r.h., 18:6 L:D photo period). Number of alive insects are counted and percentage of dead calculated. Tests were conducted with one replicate. In this test, compounds listed in the Tables above show good activity. In particular compounds T1.1.17, T1.1.89, T41.1.1, T35.1.1, T40.1.1, T30.1.1, T44.1.1, T31.1.1, T31.1.2, T30.1.2, T1.1.17, T1.1.89, T16.1.1, T36.1.1, T16.1.1, T3.7.1, T18.1.1, T43.1.1, T42.1.1, T30.1.2, T30.1.1, T40.1.1, T41.1.1, T45.1.1, T35.1.1, T1.1.73, T18.1.1, T36.1.1, T1.1.1 and T1.1.73 have an activity of over 80%.

SMILES | pest or weed control at 12.5 ppm
Cc1cc(Cl)cc(C(=O)NCC(C)S(C)(=N)=O)c1NC(=O)c1cc(C(F)(F)F)nn1-c1ncccc1Cl (centres unmarked) [T36.1.1] | > 80%
Cc1cc(Cl)cc(C(=O)NCCCCS(C)(=N)=O)c1NC(=O)c1cc(C(F)(F)F)nn1-c1ncccc1Cl (centres unmarked) [T40.1.1] | > 80%
Cc1cc(Cl)cc(C(=O)NCCCCS(C)(=O)=NC(=O)C(F)(F)F)c1NC(=O)c1cc(C(F)(F)F)nn1-c1ncccc1Cl (centres unmarked) [T41.1.1] | > 80%
Cc1cc(Cl)cc(C(=O)NCC(C)(C)CS(C)(=N)=O)c1NC(=O)c1cc(C(F)(F)F)nn1-c1ncccc1Cl (centres unmarked) [T42.1.1] | > 80%
Cc1cc(Cl)cc(C(=O)NCC(C)(C)CS(C)(=O)=NC(=O)C(F)(F)F)c1NC(=O)c1cc(C(F)(F)F)nn1-c1ncccc1Cl (centres unmarked) [T43.1.1] | > 80%
Cc1cc(Cl)cc(C(=O)NCCOCCS(C)(=N)=O)c1NC(=O)c1cc(C(F)(F)F)nn1-c1ncccc1Cl (centres unmarked) [T44.1.1] | > 80%
Cc1cc(Cl)cc(C(=O)NCCOCCS(C)(=O)=NC(=O)C(F)(F)F)c1NC(=O)c1cc(C(F)(F)F)nn1-c1ncccc1Cl (centres unmarked) [T45.1.1] | > 80%

System: not given
Experiment: not given
Settings: not given

melting point | SMILES
248 to 250 °C | Cc1cc(Cl)cc(C(=O)NC(CS(C)(=N)=O)C(C)C)c1NC(=O)c1cc(C(F)(F)F)nn1-c1ncccc1Cl (centres unmarked)
225 to 226 °C | CCCCC(CS(C)(=N)=O)NC(=O)c1cc(Cl)cc(C)c1NC(=O)c1cc(C(F)(F)F)nn1-c1ncccc1Cl (centres unmarked)
207 to 209 °C | COC(=O)C(CCS(C)(=N)=O)NC(=O)c1cc(Cl)cc(C)c1NC(=O)c1cc(C(F)(F)F)nn1-c1ncccc1Cl (centres unmarked)
125 to 130 °C | Cc1cc(Cl)cc(C(=O)NCC(C)S(C)(=O)=NC(=O)C(F)(F)F)c1NC(=O)c1cc(C(F)(F)F)nn1-c1ncccc1Cl (centres unmarked)
187 to 189 °C | Cc1cc(C#N)cc(C(=O)NC2(CS(C)(=O)=NC(=O)C(F)(F)F)CC2)c1NC(=O)c1cc(C(F)(F)F)nn1-c1ncccc1Cl (centres unmarked)
110 to 113 °C | Cc1cc(Cl)cc(C(=O)NCCCCCCS(C)(=O)=NC(=O)C(F)(F)F)c1NC(=O)c1cc(C(F)(F)F)nn1-c1ncccc1Cl (centres unmarked) [T47.1.1]

SMILES | melting point
CCC(CS(C)(=N)=O)NC(=O)c1cc(Cl)cc(C)c1NC(=O)c1cc(C(F)(F)F)nn1-c1ncccc1Cl (centres unmarked) [T38.1.1] | 180 to 185 °C
CCC(CS(C)(=O)=NC(=O)C(F)(F)F)NC(=O)c1cc(Cl)cc(C)c1NC(=O)c1cc(C(F)(F)F)nn1-c1ncccc1Cl (centres unmarked) [T39.1.1] | 170 to 174 °C
